In patent publication US20090137499A1, “BENZYLPHENYL GLUCOPYRANOSIDE DERIVATIVE” (priority 2006, published 2009):

Biological target: T1, human SGLT2 (Homo sapiens, UniProt P31639)
T1 construct: expressed in transfected cells
T1 sequence (P31639 1-672): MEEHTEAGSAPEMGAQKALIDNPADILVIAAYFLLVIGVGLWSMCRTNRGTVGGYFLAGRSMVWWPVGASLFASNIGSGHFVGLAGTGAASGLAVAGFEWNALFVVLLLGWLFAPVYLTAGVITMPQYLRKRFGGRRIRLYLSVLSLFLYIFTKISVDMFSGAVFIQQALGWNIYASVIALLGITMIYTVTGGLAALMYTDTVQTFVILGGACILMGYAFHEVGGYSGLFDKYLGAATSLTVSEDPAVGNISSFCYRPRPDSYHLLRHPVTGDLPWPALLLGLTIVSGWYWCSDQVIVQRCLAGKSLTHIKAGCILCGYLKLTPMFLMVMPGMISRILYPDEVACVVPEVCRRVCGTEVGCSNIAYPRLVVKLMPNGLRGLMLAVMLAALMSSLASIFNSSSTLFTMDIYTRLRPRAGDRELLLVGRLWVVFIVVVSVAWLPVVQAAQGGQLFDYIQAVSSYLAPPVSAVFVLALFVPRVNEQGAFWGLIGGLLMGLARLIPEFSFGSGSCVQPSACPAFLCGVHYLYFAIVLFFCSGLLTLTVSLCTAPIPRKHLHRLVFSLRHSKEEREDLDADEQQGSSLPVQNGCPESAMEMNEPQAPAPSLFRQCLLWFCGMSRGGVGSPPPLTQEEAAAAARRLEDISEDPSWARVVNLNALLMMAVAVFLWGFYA
Assay: Determination of SGLT2 inhibiting activity using human SGLT2 expressing cell ([14C]-α-methyl-D-glucopyranoside uptake)
Format: cell-based
Settings: HEK-SGLT2 cells, 1 mM [14C]-α-methyl-D-glucopyranoside, 37° C., 30 min
Description: Determination of SGLT2 Inhibiting Activity Using Human SGLT2 Expressing Cell
1) Preparation of Vector Expressing Human SGLT2 cDNA in Animal Cell
Amplification was performed by PCR using human SGLT2 cDNA clone (Origene: Clone Number, TC303267; GenBank accession number, NM 003041) as a template. The sense oligonucleotide primer for PCR was 5′-[…]-3′ (Primer 3: SEQ ID NO: 3 in the sequence listing),
and the antisense oligonucleotide primer was 5′-[…]-3′ (Primer 4: SEQ ID NO: 4 in the sequence listing). The PCR product was subjected to agarose electrophoresis, then a target DNA fragment was recovered from a single band corresponding to 2037 bases, digested with restriction enzymes HindIII and XhoI, and introduced into the HindIII/XhoI site of vector pCMV-Script (Stratagene) to obtain SGLT2 expressing plasmid pCMV-SGLT2. A HindIII/XhoI fragment was excised from pCMV-SGLT2 and introduced into the BamHI/XhoI site of pENTR1A (Gateway, Invitrogen) to prepare pENTR-SGLT2. Retrovirus vector pLPCX (Clontech) into which Gateway Vector Conversion System Cassette A (Invitrogen) was introduced was used as the destination plasmid to prepare SGLT2 expressing retrovirus vector pLPCX-SGLT2.
2) Establishment of Human SGLT2 Expressing Cell
The retrovirus pLPCX-SGLT2 obtained in 1) was transfected into integrin αvβ3 expressing HEK-293 cells, the cells were treated with antibiotic G418 (brand name, Geneticin: Invitrogen) and puromycin (Clontech) to obtain HEK-SGLT2 cells stably expressing the target vector having resistance. The stably expressing cells were cultured and maintained in DMEM medium containing […] G418, […] puromycin, 3 mM KGT-1075, and 10% FBS.
3) Determination of SGLT2 Inhibiting Activity
HEK-SGLT2 cells were suspended at a density of 10^6 cells/mL in DMEM medium containing 250 mg/mil G418, 1 mg/ml puromycin, and 10% FBS, and 100 μL was seeded in each well of a type 1 collagen-coated 96-well culture plate (Corning). On the following day, the medium was replaced with a sugar uptake buffer (10 mM HEPES [pH 7.5], 5 mM Tris-HCl [pH 7.5], 140 mM NaCl, 2 mM KCl, 1 mM CaCl2, 1 mM MgCl2), and the cells were cultured with 1 mM [^14C]-α-methyl-D-glucopyranoside (0.1 mCi) and a test compound at 37° C. for 30 min, and then washed 3 times with a washing buffer (10 mM HEPES (pH 7.5), 5 mM Tris-HCl (pH 7.5), 140 mM choline chloride, 2 mM KCl, 1 mM CaCl2, 1 mM MgCl2). 100 μL of liquid scintillation cocktail (brand name, Supermix: Perkin-Elmer) was added to each well of the 96-well plate and stirred for 10 min, and then radioactivity was determined with micro β (Perkin-Elmer), a type of liquid scintillation counter. The value obtained by deducting the radioactivity in the presence of an excess amount of an SGLT2 inhibiting compound as the background from each measured value was taken as the sugar uptake activity, the inhibition rate (%) was calculated from the control sugar uptake activity obtained without using a test compound and the sugar uptake activity obtained using a test compound having a predetermined concentration, and the concentrations of the test compound at which the sugar uptake activity was inhibited by 50% were assessed.

`COc1ccc(Cc2c(Cl)cc(CO)cc2O[C@@H]2O[C@](C)(CO)[C@@H](O)[C@H](O)[C@H]2O)cc1` [Example 55, 3-Chloro-5-hydroxymethyl-2-(4-methoxybenzyl)phenyl 5-C-methyl-β-D-glucopyranoside] showed an IC50 of 10 nM.

With `COc1ccc(Cc2ccc(N)cc2O[C@@H]2O[C@H](CO)C[C@H](O)[C@H]2O)cc1` [Example 65, 5-Amino-2-(4-methoxybenzyl)phenyl 4-deoxy-β-D-glucopyranoside] the IC50 was 20 nM.

`CCOc1ccc(Cc2ccc(COC(=O)CO)cc2O[C@@H]2O[C@H]([C@@H](C)O)[C@@H](O)[C@H](O)[C@H]2O)cc1` [Example 99, 5-Hydroxyacetyloxymethyl-2-(4-ethoxybenzyl)phenyl 7-deoxy-D-glycero-β-D-gluco-heptopyranoside] gave an IC50 of 272 nM.

`COc1ccc(Cc2c(Cl)cc(CO)cc2O[C@@H]2O[C@H](CO)C[C@H](O)[C@H]2O)cc1` [Example 86, 3-Chloro-5-hydroxymethyl-2-(4-methoxybenzyl)phenyl 4-deoxy-β-D-glucopyranoside] gave an IC50 of 19 nM.

Compound `COc1ccc(Cc2c(Cl)cc(CO)cc2O[C@@H]2O[C@H](CO)[C@@](C)(O)[C@H](O)[C@H]2O)cc1` [Example 56, 3-Chloro-5-hydroxymethyl-2-(4-methoxybenzyl)phenyl 4-C-methyl-β-D-glucopyranoside] has an IC50 of 11 nM.

`COc1ccc(Cc2c(F)cc(CO)cc2O[C@@H]2O[C@H](CO)C[C@H](O)[C@H]2O)cc1` [Example 85, 3-Fluoro-5-hydroxymethyl-2-(4-methoxybenzyl)phenyl 4-deoxy-β-D-glucopyranoside] was tested, and the IC50 was 20 nM.

`COc1ccc(Cc2ccc(N)cc2O[C@@H]2O[C@H](CO)[C@@](C)(O)[C@H](O)[C@H]2O)cc1` [Example 64, 5-Amino-2-(4-methoxybenzyl)phenyl 4-C-methyl-β-D-glucopyranoside] gave an IC50 of 13 nM.
